Test results: patent publication US20250136568A1, “FUSED HETEROCYCLIC COMPOUNDS AS PI3KALPHA INHIBITORS” (Nanjing Zenshine Pharmaceuticals Co., Ltd., priority 2021, published 2025)
Read-outs that look alike come from different tables or passages of the source.

Legend:
[1] = tested on: PI3Kα wide type cell line SK-BR-3; assay: Cell Proliferation IC50 Assay (CellTiter-Glo), SK-BR-3; assay type: cell-based; details: SK-BR-3 (PI3Kα wild type), 72 hours, CellTiter-Glo, read-out: IC50 (μM) SK-BR-3
Summary of the method: (§1)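 Read-out was CellTiter-Glo luminescence after 72 h of compound exposure at 37 °C, 5% CO2. Cells had been plated overnight in complete medium before the compound was added at a 200-fold final dilution. IC50 was derived from percent inhibition.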

PI3Kα WT = PI3Kα WT (Homo sapiens, UniProt P42336); assay: pAKT (S473) ELISA assay in WT cell line (SK-BR-3); assay type: cell-based; details: SK-BR-3 cells, two hours compound, IGF-1 50 ng/ml stimulation
Chain of PI3Kα WT (P42336 whole entry): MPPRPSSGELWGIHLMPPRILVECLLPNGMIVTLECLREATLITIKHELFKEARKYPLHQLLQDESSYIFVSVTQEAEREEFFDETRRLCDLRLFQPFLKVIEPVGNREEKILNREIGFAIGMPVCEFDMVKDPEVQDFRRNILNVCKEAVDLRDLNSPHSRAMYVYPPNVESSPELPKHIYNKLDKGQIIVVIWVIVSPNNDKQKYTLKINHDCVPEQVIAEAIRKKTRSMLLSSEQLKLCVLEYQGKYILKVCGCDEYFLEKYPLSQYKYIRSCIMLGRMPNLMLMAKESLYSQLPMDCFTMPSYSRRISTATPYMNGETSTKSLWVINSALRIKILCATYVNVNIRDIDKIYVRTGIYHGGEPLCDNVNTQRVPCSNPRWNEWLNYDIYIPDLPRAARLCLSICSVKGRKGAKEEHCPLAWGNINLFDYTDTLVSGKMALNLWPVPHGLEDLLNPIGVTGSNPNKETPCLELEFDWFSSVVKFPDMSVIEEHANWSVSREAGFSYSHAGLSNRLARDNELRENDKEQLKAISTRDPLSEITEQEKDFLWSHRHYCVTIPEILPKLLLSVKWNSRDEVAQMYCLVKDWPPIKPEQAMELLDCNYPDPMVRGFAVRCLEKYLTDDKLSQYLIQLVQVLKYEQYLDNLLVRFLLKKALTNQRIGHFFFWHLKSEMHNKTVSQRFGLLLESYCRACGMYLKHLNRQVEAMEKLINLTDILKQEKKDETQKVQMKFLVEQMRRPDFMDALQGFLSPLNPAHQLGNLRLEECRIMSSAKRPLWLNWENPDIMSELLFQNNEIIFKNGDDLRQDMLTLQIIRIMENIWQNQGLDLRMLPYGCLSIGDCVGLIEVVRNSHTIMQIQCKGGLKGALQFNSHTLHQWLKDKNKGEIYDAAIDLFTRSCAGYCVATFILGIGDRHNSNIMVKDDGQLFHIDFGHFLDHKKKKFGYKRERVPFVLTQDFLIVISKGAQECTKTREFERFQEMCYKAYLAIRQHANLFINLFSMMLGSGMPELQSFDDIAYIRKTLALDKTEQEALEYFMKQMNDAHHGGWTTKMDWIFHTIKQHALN
Chain of PI3Kα WT (P27986 whole entry partner): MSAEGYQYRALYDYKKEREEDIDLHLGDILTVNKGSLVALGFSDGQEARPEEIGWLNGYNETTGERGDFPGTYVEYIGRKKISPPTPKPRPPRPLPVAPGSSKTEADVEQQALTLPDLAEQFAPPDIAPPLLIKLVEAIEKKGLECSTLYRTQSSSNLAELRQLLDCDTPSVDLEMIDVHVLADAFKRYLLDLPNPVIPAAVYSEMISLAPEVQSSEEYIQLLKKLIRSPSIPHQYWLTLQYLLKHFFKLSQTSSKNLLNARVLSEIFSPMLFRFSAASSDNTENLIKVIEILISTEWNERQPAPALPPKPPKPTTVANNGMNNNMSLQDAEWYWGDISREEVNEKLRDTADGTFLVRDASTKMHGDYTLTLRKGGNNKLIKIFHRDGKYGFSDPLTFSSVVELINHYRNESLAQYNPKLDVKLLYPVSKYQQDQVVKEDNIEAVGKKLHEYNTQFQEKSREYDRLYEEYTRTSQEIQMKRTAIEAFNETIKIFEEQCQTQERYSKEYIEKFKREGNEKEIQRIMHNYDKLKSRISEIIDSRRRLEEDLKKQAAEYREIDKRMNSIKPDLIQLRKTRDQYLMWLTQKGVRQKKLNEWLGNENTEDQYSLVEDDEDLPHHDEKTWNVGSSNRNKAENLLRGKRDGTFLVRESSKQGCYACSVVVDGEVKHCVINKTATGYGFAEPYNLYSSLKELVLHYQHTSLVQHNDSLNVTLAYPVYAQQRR
Description: (§2) Cells were serum starved for 4 hours prior to compound treatment; compound solution was added to each well (3-fold serial dilution starting at desired concentration) for two hours in serum-free medium, followed by stimulation with IGF-1 for 60 minutes at a final concentration of 50 ng/ml as noted. After compound treatment and stimulation, discarded the supernatant and cells were lysed by cell lysis buffer (Cell Signaling Technology, #9803S). The lysate was transferred to the ELISA plate, the Phospho-AKT (Ser473) ELISA was performed as the manufacturer's directions (Cell Signaling Technology, #7160CA).

[2] = In vivo pharmacokinetics in mice; details: for clearance / bioavailability: male, CD1, mouse, plasma; for clearance: intravenous, 1 mg/kg; for bioavailability: oral, 5 mg/kg
Description: (§3) Dosing solutions were prepared at 0.5 mg/mL in 10% DMSO/10% HP—3-CD/80% water. A dosing solution was administered to Male CD1 mice (4-6 weeks, 20-30 g, 3 mice each group) via intravenous (TV) bolus at 1 mg/kg and by oral gavage (PO) at 5 mg/kg. The dose formulations were kept at room temperature and administrated within 30 mins for IV/PO. Blood samples (0.3 mL each time point) were collected into tubes containing ethylenediaminetetraacetic acid (K2EDTA) as the anticoagulant at 0, 0033, 0.083, 0.25, 05, 1, 2, 4, 8 and 24 hours post dose for IV administrated and 0, 0.083, 0.25, 0.5, 1, 2, 4, 8 and 24 hours post dose for PO administration. The blood sample were then centrifuged for 5 minutes in centrifuge refrigerated at 4° C. The samples were stored in a freezer at −75±15° C. prior to analysis. Concentrations of Compound in the plasma samples were analyzed using a LC-MS/MS method. WinNonlin (Phoenix™, version 8.3) or other similar software were used for pharmacokinetic calculations. The following pharmacokinetic parameters were calculated, whenever possible from the plasma concentration versus time data: MRT, Cmax, Tmax, AUClast, AUCinf, F %, Number of Points for Regression.

PI3Kα H1047R mutant = PI3Kα H1047R mutant (Homo sapiens, UniProt P42336, H1047R); assay: pAKT (S473) ELISA assay in PI3Kα H1047R mutant cell line (T47D); assay type: cell-based; details: T47D cells, two hours compound, IGF-1 50 ng/ml stimulation
Chain of PI3Kα H1047R mutant (P42336 whole entry H1047R): as the sequence (P42336 whole entry) above, with H1047R counted along it
Chain of PI3Kα H1047R mutant (P27986 whole entry partner): as the sequence (P27986 whole entry partner) above
Description: as §2

[3] = tested on: PI3Kα H1047R mutation cell line T-47D; assay: Cell Proliferation IC50 Assay (CellTiter-Glo), T-47D; assay type: cell-based; details: T47D (H1047R), 72 hours, CellTiter-Glo, read-out: IC50 (μM) T47D
Summary of the method: as §1

[4] = tested on: PI3Kα H1047R mutation cell line MDA-MB-453; assay: Cell Proliferation IC50 Assay (CellTiter-Glo), MDA-MB-453; assay type: cell-based; details: Homo sapiens; MDA-MB-453 (H1047R), 72 hours, CellTiter-Glo; read-out: IC50 (μM) MDA-MB-453
Summary of the method: as §1

PI3Kβ = molecular target: T1, PI3Kβ (Homo sapiens, UniProt P42338); assay: Selectivity study, p-AKT (Ser473) HTRF assay in 786-O cells; assay type: cell-based; details: 786-O cell, 1 hour incubation, serum-free medium
T1 construct: endogenous in cells; host or cells: 786-O
T1 sequence (P42338 whole entry): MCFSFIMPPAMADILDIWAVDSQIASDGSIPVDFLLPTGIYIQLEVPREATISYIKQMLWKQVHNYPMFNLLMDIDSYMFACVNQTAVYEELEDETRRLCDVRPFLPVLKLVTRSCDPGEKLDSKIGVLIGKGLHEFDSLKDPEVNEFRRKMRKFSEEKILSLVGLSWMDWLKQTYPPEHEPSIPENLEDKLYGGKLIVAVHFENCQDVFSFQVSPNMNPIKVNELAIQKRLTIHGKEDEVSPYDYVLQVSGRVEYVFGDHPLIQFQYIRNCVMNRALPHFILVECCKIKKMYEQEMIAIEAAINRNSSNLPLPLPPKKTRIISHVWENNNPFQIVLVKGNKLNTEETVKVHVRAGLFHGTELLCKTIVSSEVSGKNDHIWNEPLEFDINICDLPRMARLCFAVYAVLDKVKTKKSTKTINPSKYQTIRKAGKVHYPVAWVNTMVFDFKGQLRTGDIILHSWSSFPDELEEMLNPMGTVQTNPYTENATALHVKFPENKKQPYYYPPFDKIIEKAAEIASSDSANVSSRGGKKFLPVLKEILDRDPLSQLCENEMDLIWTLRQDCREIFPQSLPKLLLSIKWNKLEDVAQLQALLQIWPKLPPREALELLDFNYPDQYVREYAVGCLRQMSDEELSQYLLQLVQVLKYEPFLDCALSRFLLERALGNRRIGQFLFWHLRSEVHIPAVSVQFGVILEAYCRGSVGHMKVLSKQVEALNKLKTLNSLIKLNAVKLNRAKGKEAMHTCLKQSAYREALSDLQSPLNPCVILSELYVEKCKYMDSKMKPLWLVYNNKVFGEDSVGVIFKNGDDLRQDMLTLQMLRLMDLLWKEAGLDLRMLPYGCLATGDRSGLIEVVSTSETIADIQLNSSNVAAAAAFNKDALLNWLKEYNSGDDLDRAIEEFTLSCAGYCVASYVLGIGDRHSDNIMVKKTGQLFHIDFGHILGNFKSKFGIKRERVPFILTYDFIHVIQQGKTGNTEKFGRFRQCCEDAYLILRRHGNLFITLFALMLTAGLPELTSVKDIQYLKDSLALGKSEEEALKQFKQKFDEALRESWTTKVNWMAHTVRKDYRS
T1 sequence (P27986 whole entry partner): as the sequence (P27986 whole entry partner) above
Description: The following day, the complete medium was replaced with serum-free medium, 3-fold serial diluted compound solution in serum-free medium was added to each well according to the plate map. After 1 hour incubation, removed cell supernatant carefully and added supplemented lysis buffer (1×) for 45 min. The lysate was transferred to a 384-well small volume white plate, the CisBio Phospho-AKT (Ser473) HTRF assay was performed as the manufacturer's directions (Cisbio, #64AKSPEG).

in vivo = details: male, CD1, mouse
Description: as §3

[5] = CD1 mice, IV bolus at 1 mg/kg and PO at 5 mg/kg

Compound | IC50 ([1]; Homo sapiens) | IC50 (PI3Kα WT) | clearance [2] | bioavailability [2] | IC50 (PI3Kα H1047R mutant) | IC50 ([3]; Homo sapiens, T47D, 72 h) | IC50 [4] | IC50 (PI3Kβ) | IC50 ([3]; Homo sapiens) | bioavailability (in vivo) | clearance (in vivo) | IC50 [1] | Cmax [2, 5] | MRT [2, 5] | IC50 [3]
Cc1cc([C@@H](C)Nc2ccccc2C(=O)O)c2oc(-c3ccc4nn(C)cc4c3)cc(=O)c2c1 (single isomer, unassigned) [Example 38B] | 8.5 µM | 1290 nM | 34 mL/min/kg | 45.5% | 25 nM | 0.04 µM | 0.05 µM | 545 nM | – | – | – | – | – | – | –
Cc1cc([C@@H](C)Nc2ccccc2C(=O)O)c2oc(-c3ccc(CN4CCN(C)CC4)cc3)c(C)c(=O)c2c1 [Example 147, 2-[[(1R)-1-[3,6-dimethyl-2-[4-[(4-methylpiperazin-1-yl)methyl]phenyl]-4-oxo-chromen-8-yl]ethyl]amino]benzoic acid] | > 10 µM | 6130 nM | – | – | 46.5 nM | – | – | > 10000 nM | 0.055 µM | 46.5% | 10.9 mL/min/kg | – | – | – | –
Cc1cc([C@@H](C)Nc2ccccc2C(=O)O)c2oc(-c3ccc(-c4cnn(C)c4)nc3)c(C)c(=O)c2c1 [Example 150, (R)-2-((1-(3,6-dimethyl-2-(6-(1-methyl-H-pyrazol-4-yl)pyridin-3-yl)-4-oxo-41-chromen-8-yl)ethyl)amino)benzoic acid] | > 10 µM | 2370 nM | 3.75 mL/min/kg | 58.2% | 25 nM | 0.064 µM | 0.13 µM | > 10000 nM | – | – | – | – | – | – | –
(R)-2-((1-(6-methyl-2-(41-methyl-1H-pyrazol-4-yl)phenyl)-4-oxo-4H-chromen-8-yl)ethyl)amino)benzoic acid [Example 95A] | – | 1260 nM | – | – | 12 nM | – | – | – | – | – | – | > 10 µM | 102 ng/mL | 7.64 h | 0.09 µM
